# pIC50: −log10 of the molar value. Where two headings read alike, the source gives them in different places.
# Tests used:
# [1] = High throughput solubility; assay type: physicochemical; conditions: aqueous buffer (pION system solution), pH 7, aqueous buffer, kinetic from dmso stock
# [2] = Human microsomal stability; assay type: in vitro ADME; conditions: pH 7.4; human liver microsomes; read-out: human liver microsome half life
# Potassium Channel HERG = target: T1, Potassium Channel HERG (Homo sapiens, UniProt Q12809); experiment: hERG assays (either hERG binding assay or hERG patch clamp assay); assay type: cell-based; conditions: Table 3, not specified per compound
# T1 construct: expressed in transfected cells; host or cells: HEK-293 cells
# T1 sequence (Q12809 whole entry): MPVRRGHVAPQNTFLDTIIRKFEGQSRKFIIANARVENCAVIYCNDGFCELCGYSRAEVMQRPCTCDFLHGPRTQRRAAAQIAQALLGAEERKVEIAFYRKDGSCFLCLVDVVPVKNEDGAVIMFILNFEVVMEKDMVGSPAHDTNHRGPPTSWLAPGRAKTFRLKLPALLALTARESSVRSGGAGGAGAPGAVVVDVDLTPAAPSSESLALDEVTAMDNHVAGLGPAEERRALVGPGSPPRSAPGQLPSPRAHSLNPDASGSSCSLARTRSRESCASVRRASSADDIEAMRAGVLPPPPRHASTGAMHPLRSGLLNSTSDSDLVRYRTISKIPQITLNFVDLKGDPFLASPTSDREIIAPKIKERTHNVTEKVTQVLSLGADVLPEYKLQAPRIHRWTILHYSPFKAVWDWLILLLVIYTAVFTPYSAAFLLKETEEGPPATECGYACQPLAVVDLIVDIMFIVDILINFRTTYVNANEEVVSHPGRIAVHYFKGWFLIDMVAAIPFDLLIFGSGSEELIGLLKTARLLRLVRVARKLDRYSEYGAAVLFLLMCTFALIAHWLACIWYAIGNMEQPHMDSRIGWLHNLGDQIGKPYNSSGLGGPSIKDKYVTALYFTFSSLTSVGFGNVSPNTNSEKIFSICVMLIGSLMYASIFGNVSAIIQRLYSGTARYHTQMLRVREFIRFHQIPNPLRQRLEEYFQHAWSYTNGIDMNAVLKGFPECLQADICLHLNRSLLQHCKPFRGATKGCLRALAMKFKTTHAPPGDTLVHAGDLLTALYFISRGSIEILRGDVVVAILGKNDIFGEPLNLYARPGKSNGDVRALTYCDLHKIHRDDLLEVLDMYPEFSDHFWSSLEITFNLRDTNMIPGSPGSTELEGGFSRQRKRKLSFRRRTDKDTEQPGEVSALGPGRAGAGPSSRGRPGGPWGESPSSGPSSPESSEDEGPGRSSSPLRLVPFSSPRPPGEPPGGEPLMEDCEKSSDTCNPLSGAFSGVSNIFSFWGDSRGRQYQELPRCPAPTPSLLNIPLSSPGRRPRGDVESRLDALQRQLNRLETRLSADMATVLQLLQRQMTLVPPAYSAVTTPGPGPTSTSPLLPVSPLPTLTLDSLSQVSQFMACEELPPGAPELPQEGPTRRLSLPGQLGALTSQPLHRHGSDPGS
# [3] = target: T2, human glucocorticoid receptor (GR) complex (Homo sapiens, UniProt P04150); experiment: Glucocorticoid receptor fluorescence polarization competitive binding assay;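 further: GR complex expressed in an insect system, wells lacking compound give full signal, excess unlabeled dexamethasone defines the blank, IC50 from logistic curve fit of polarization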
# T2 construct: made in house; host or cells: insect expression system (baculovirus lysate)
# T2 sequence (P04150 1-777): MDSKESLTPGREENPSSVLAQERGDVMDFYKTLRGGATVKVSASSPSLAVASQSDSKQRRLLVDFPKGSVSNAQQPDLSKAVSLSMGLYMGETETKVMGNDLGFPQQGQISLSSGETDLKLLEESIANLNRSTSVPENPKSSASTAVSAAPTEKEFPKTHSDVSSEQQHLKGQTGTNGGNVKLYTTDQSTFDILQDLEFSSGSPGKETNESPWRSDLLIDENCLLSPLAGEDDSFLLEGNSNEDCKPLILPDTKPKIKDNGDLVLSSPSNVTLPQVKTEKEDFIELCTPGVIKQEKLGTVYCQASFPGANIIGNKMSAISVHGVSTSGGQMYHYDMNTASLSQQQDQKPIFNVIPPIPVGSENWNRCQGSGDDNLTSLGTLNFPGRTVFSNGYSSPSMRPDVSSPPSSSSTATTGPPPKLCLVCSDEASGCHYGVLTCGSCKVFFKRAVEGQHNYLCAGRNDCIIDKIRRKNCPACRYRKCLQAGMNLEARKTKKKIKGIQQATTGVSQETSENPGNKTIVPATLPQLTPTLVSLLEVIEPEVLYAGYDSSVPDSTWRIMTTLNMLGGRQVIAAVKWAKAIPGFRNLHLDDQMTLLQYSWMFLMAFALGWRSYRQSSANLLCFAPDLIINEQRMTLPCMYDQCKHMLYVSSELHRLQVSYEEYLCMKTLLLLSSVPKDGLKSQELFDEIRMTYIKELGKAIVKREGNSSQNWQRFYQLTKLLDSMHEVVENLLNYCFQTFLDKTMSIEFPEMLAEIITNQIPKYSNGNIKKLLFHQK
# human recombinant CYP3A4 = human recombinant CYP3A4 (Homo sapiens, UniProt P08684); experiment: Cytochrome P450 inhibition assay (substrate 7-benzyloxy-4-(trifluoromethyl)coumarin); assay type: in vitro ADME;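 further: compounds preincubated at least 10 min at 37 °C before adding enzyme plus substrate, reaction run 30 min at 37 °C, ketoconazole standard curve on every plate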
# Sequence of human recombinant CYP3A4 (P08684 whole entry): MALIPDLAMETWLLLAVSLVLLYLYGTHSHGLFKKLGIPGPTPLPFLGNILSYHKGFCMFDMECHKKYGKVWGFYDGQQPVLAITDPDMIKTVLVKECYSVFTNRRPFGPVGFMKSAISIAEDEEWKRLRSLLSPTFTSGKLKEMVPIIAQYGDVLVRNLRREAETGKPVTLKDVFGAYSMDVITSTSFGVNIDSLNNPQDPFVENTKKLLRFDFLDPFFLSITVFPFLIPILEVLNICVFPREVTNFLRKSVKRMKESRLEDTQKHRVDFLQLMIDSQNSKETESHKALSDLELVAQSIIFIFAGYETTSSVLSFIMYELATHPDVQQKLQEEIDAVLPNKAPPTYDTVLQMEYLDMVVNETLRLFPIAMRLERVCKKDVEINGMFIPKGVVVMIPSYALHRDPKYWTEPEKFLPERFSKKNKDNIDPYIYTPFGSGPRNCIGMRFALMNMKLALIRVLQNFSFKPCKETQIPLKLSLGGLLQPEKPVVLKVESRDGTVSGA
# [4] = Table 1, competition with TAMRA-labeled dexamethasone, read-out: GR IC50
SMILES,solubility [1],half-life [2],"pIC50 [3, 4]","pIC50 (human recombinant CYP3A4; Table 1, read-out: CYP3A4 IC50)",also measured
CC(C)(C[C@@](O)(Cc1cc2cc(S(C)(=O)=O)ncc2[nH]1)C(F)(F)F)c1ccccc1C(N)=O,17 µg/mL,44 min,,,pIC50 (Potassium Channel HERG): < 4.52
CC(C)(CC(O)(Cc1cc2cc(S(C)(=O)=O)ncc2[nH]1)C(F)(F)F)c1ccc(F)cc1C(N)=O (stereo not drawn),> 100 µg/mL,45 min,,,pIC50 (Potassium Channel HERG): < 4.52
"CC(C)(CC(O)(Cc1cc2cc(S(C)(=O)=O)ncc2[nH]1)C(F)(F)F)c1cccc2c1S(=O)(=O)C=C2 (stereo not drawn) [4-(1,1-Dioxo-1H-1λ^6-benzo[b]thiophen-7-yl)-1,1,1-trifluoro-2-(5-methanesulfonyl-1H-pyrrolo[2,3-c]pyridin-2-ylmethyl)-4-methylpentan-2-ol]",,,7.05,5.13,
"CCS(=O)(=O)c1cc2cc(CC(O)(CC(C)(C)c3cccc4c3S(=O)(=O)C=C4)C(F)(F)F)[nH]c2cn1 (stereo not drawn) [4-(1,1-Dioxo-1H-1λ^6-benzo[b]thiophen-7-yl)-2-(5-ethanesulfonyl-1H-pyrrolo[2,3-c]pyridin-2-ylmethyl)-1,1,1-trifluoro-4-methylpentan-2-ol]",,,7.24,5.39,
"CC(C)(CC(O)(Cc1cc2cc(S(C)(=O)=O)ncc2[nH]1)C(F)(F)F)c1ccccc1Br (stereo not drawn) [4-(2-Bromophenyl)-1,1,1-trifluoro-2-(5-methanesulfonyl-1H-pyrrolo[2,3-c]pyridin-2-ylmethyl)-4-methylpentan-2-ol]",,,8.15,4.64,
"CC(C)(CC(O)(Cc1cc2nc(S(C)(=O)=O)ccc2[nH]1)C(F)(F)F)c1cc(Cl)ccc1S(C)(=O)=O (stereo not drawn) [4-(5-Chloro-2-methanesulfonylphenyl)-1,1,1-trifluoro-2-(5-methanesulfonyl-1H-pyrrolo[3,2-b]pyridin-2-ylmethyl)-4-methylpentan-2-ol]",,,,5.39,pIC50 [3]: 8.10
"CC(C)(CC(O)(Cc1cc2cc(S(C)(=O)=O)ncc2[nH]1)C(F)(F)F)c1cccc2ccsc12 (stereo not drawn) [4-Benzo[b]thiophen-7-yl-1,1,1-trifluoro-2-(5-methanesulfonyl-1H-pyrrolo[2,3-c]pyridin-2-ylmethyl)-4-methylpentan-2-ol]",,,,5.57,pIC50 [3]: 8.00
"CC(C)(CC(O)(Cc1cc2cc(S(C)(=O)=O)ncc2[nH]1)C(F)(F)F)c1cc(Br)ccc1O (stereo not drawn) [4-Bromo-2-[4,4,4-trifluoro-3-hydroxy-3-(5-methanesulfonyl-1H-pyrrolo[2,3-c]pyridin-2-ylmethyl)-1,1-dimethylbutyl]phenol]",,,8.15,5.25,
"CC(C)(C[C@@](O)(Cc1cc2nc(S(C)(=O)=O)ncc2[nH]1)C(F)(F)F)c1ccc(F)cc1C(N)=O [5-Fluoro-2-[(R)-4,4,4-trifluoro-3-hydroxy-3-(2-methanesulfonyl-5H-pyrrolo[3,2-d]pyrimidin-6-ylmethyl)-1,1-dimethylbutyl]benzamide]",,,6.68,4.96,
"CC(C)(C[C@@](O)(Cc1cc2nc(S(C)(=O)=O)ccc2[nH]1)C(F)(F)F)c1ccc(F)cc1C(N)=O [5-Fluoro-2-[(R)-4,4,4-trifluoro-3-hydroxy-3-(5-methanesulfonyl-1H-pyrrolo[3,2-b]pyridin-2-ylmethyl)-1,1-dimethyl-butyl]benzamide]",,,,5.15,pIC50 [3]: 7.57
"CC(C)(C[C@@](O)(Cc1cc2cc(S(C)(=O)=O)ncc2[nH]1)C(F)(F)F)c1cccc(Br)c1 [(R)-4-(3-Bromophenyl)-1,1,1-trifluoro-2-(5-methanesulfonyl-1H-pyrrolo[2,3-c]pyridin-2-ylmethyl)-4-methylpentan-2-ol]",,,,4.70,pIC50 [3]: 8.05
"CC(C)(C[C@@](O)(Cc1cc2nc(S(C)(=O)=O)ccc2[nH]1)C(F)(F)F)c1cccc(Br)c1 [(R)-4-(3-Bromophenyl)-1,1,1-trifluoro-2-(5-methanesulfonyl-1H-pyrrolo[3,2-b]pyridin-2-ylmethyl)-4-methylpentan-2-ol]",,,7.85,4.82,
"CCS(=O)(=O)c1cc2cc(C[C@](O)(CC(C)(C)c3cc(Cl)cc4c3OCC4)C(F)(F)F)[nH]c2cn1 [(R)-4-(5-Chloro-2,3-dihydrobenzofuran-7-yl)-2-(5-ethanesulfonyl-1H-pyrrolo[2,3-c]pyridin-2-ylmethyl)-1,1,1-trifluoro-4-methylpentan-2-ol]",,,8.15,5.74,
"CC(C)(C[C@@](O)(Cc1cc2cc(S(C)(=O)=O)ncc2[nH]1)C(F)(F)F)c1cc(Cl)cc2c1OCC2 [drawing 3, (R)-4-(5-Chloro-2,3-dihydrobenzofuran-7-yl)-1,1,1-trifluoro-2-(5-methanesulfonyl-1H-pyrrolo[2,3-c]pyridin-2-ylmethyl)-4-methylpentan-2-ol]",,,8.22,5.19,
CC(C)(C[C@@](O)(Cc1cc2cc(S(C)(=O)=O)ncc2[nH]1)C(F)(F)F)c1cc(Cl)cc2c1OCC2 [drawing 95],,< 3 min,,,"pIC50 (Potassium Channel HERG): 5.03; pIC50 (human recombinant CYP3A4; Table 3, read-out: CYP3A4 Inhibition IC50): 5.19"
CC(C)(C[C@@](O)(Cc1cc2cc(S(C)(=O)=O)ncc2[nH]1)C(F)(F)F)c1ccc(Cl)cc1S(C)(=O)=O [drawing 97],40 µg/mL,17 min,,,pIC50 (Potassium Channel HERG): < 5.00

# Further lines, with some results ahead:
solubility [1],half-life [2],"pIC50 [3, 4]","pIC50 (human recombinant CYP3A4; Table 1, read-out: CYP3A4 IC50)",SMILES,also measured
59 µg/mL,< 3 min,,,CC(C)(CC(O)(Cc1cc2cc(S(C)(=O)=O)ncc2[nH]1)C(F)(F)F)c1ccccc1S(C)(=O)=O (stereo not drawn),
> 100 µg/mL,> 300 min,,,CCS(=O)(=O)c1cc2cc(C[C@](O)(CC(C)(C)c3ccc(F)cc3C(N)=O)C(F)(F)F)[nH]c2cn1,
,,6.68,< 4.52,"CC(C)S(=O)(=O)c1cc2cc(CC(O)(CC(C)(C)c3cccc(F)c3S(C)(=O)=O)C(F)(F)F)[nH]c2cn1 (stereo not drawn) [1,1,1-Trifluoro-4-(3-fluoro-2-methanesulfonylphenyl)-4-methyl-2-[5-(propane-2-sulfonyl)-1H-pyrrolo[2,3-c]pyridin-2-ylmethyl]pentan-2-ol]",
,,7.28,4.72,"CC(C)S(=O)(=O)c1cc2cc(CC(O)(CC(C)(C)c3ccc(F)cc3S(C)(=O)=O)C(F)(F)F)[nH]c2cn1 (stereo not drawn) [1,1,1-Trifluoro-4-(4-fluoro-2-methanesulfonylphenyl)-4-methyl-2-[5-(propane-2-sulfonyl)-1H-pyrrolo[2,3-c]pyridin-2-ylmethyl]pentan-2-ol]",
,,7.85,6.05,"CCCS(=O)(=O)c1cc2cc(CC(O)(CC(C)(C)c3cc(Cl)ccc3S(C)(=O)=O)C(F)(F)F)[nH]c2cn1 (stereo not drawn) [4-(5-Chloro-2-methanesulfonylphenyl)-1,1,1-trifluoro-4-methyl-2-[5-(propane-1-sulfonyl)-1H-pyrrolo[2,3-c]pyridin-2-ylmethyl]pentan-2-ol]",
,,7.77,5.22,"CC(C)S(=O)(=O)c1cc2cc(CC(O)(CC(C)(C)c3cc(Cl)ccc3S(C)(=O)=O)C(F)(F)F)[nH]c2cn1 (stereo not drawn) [4-(5-Chloro-2-methanesulfonylphenyl)-1,1,1-trifluoro-4-methyl-2-[5-(propane-2-sulfonyl)-1H-pyrrolo[2,3-c]pyridin-2-ylmethyl]pentan-2-ol]",
18 µg/mL,11 min,,,CCS(=O)(=O)c1cc2cc(CC(O)(CC(C)(C)c3ccc(Cl)cc3S(C)(=O)=O)C(F)(F)F)[nH]c2cn1 (stereo not drawn) [drawing 98],pIC50 (Potassium Channel HERG): < 5.00
52 µg/mL,7 min,,,CCS(=O)(=O)c1cc2cc(CC(O)(CC(C)(C)c3ccc(F)cc3S(C)(=O)=O)C(F)(F)F)[nH]c2cn1 (stereo not drawn) [drawing 99],pIC50 (Potassium Channel HERG): < 4.52
> 100 µg/mL,14 min,,,CC(C)(C[C@@](O)(Cc1cc2cc(S(C)(=O)=O)ncc2[nH]1)C(F)(F)F)c1ccc(F)cc1S(C)(=O)=O [drawing 100],pIC50 (Potassium Channel HERG): < 4.52

# Reference: patent US8268859B2, “Glucocorticoid mimetics, methods of making them, pharmaceutical compositions and uses thereof” (Boehringer Ingelheim International GmbH, priority 2008, dated 2012)
